Eight molecules from US7691582B2, “Methods of secretory vimentin detection and modulation” (The Regents of the University of Michigan, priority 2002, dated 2010) can be followed below.

“Also recorded” adds a separate entry of the source.

Holding throughout (type): cell-based, human
The test system of assay [1] is secretion of vimentin from MDM. The assay can be described thus: Vimentin secretion by MDM, Western blot of supernatants. The following applies: for secretion of vimentin from the mature MDM: eleven day MDM, 40% human serum, monensin 2 or 4 μg ml−1 or tunicamycin 4 μg ml−1, 12 h, FIG. 2h; for vimentin secretion (vimentin in the supernatant): MDM treated 2 h with inhibitor (GÖ 6983 250 nM; SB 203580 100 μM), FIGS. 3c, 4a, 4b. The protocol: Monocyte-derived macrophages (MDMs) were prepared as previously described^40. Briefly, heparinized venous blood was collected upon consent from healthy volunteers, and peripheral blood mononuclear cells (PBMC) were separated by Ficoll-Hypaque (Pharmacia Biotech AB, Uppsala, Sweden) density gradient centrifugation. MDM were purified by adherence to plastic for 2 hat […] at a concentration of 5×10^5 ml^−1. Adherent cells were consistently >90% monocytes as described^40. Adherence-purified human monocytes were cultured in X-vivo medium supplemented with 40% human AB serum (Bio-Whittaker, Walkersville, Md.) and 100 units of penicillin and 50 units of streptomycin per ml^12.
(§1) Cells were maintained for 12-48 h in serum-free medium. When applicable, during the incubation in serum-free media cells were treated for 12 h with 10-500 ng ml^−1 IL-10, 0.5-5 ng ml^−1 TNF-α, 4 μg ml^−1 tunicamycin, E-64 [100 µM] (Sigma), or 2 or 4 μg ml^−1 monensin (Pharmingen). Alternatively, cells were treated for 2 h with GÖ 6983 [250 nM], SB 203580 [100 μM], or OA [100 nM] (Calbiochem) followed by 12 h incubation in serum-free media or treatment with TNF-α. The viability of the cells up to 48 h was almost 100% as measured by MTT assay (Boehringer Mannheim, Indianapolis, Ind.) and LDH release as previously described^12. Supernatants were collected and centrifuged for 20 min at 1500 RPM to remove cell debris and concentrated by a centrifugal filter device (Millipore) in the presence of a protease inhibitor cocktail (Boehringer Mannheim, Indianapolis, Ind.) and were either used immediately or stored at −70° C. Cells were washed and lysed with 1 ml lysis buffer (50 mM Tris pH 7.5, 150 mM NaCl, 1% NP-40 0.1% SDS, 0.5% Na-Deoxycholate and complete EDTA-free protease inhibitor cocktail) was added to the cells and allowed to incubate on ice for 15 min. The lysate was centrifuged at 10,000 rpm for 20 min at 4° C., the supernatant recovered, and the protein extract was either used immediately or stored at −70° C. Equal amounts of protein (20 μg) were loaded under reducing conditions and separated by 10% SDS PAGE. The gel was transferred to nitrocellulose and immunoblotted with mouse monoclonal anti-vimentin antibody V9 (Research Genetics, Inc), goat anti-vimentin antibody (Chemicon International, Calif.) or goat anti-actin (Santa-Cruz Biotechnology, Inc) followed by a horseradish peroxidase-conjugated appropriate secondary antibody. Chemiluminescent signal was detected using the Super Signal West Pico system (Pierce Chemical Co, Rockford, Ill.).
In general terms: In western blotting, separated proteins are transferred to a membrane and probed.

Assay [2] concerns secretion of vimentin from MDM. Described as above.
Assay [3] deals with vimentin proteolysis in MDM. In words: Vimentin proteolytic products in MDM, Western blot with V9. The following applies: MDM treated with E-64 [100 µM], 12 h; FIG. 3e. As to the method:
as §1, with “The lysate was centrifuged at 10,000 rpm for 20 min at 4° C., the supernatant recovered, and the protein extract was either used immediately or stored at −70° C. Equal amounts of protein (20 μg) were loaded under reducing conditions and separated by 10% SDS PAGE. The gel was transferred to nitrocellulose and immunoblotted with mouse monoclonal anti-vimentin antibody V9 (Research Genetics, Inc), goat anti-vimentin antibody (Chemicon International, Calif.) or goat anti-actin (Santa-Cruz Biotechnology, Inc) followed by a horseradish peroxidase-conjugated appropriate secondary antibody.” left out

In assay [4] the test system is phosphorylated vimentin in MDM. The assay can be described thus: Immunoprecipitation with anti-phospho-(Ser/Thr) antibody, vimentin detected by V9. The following applies: 7 day MDM in 10% serum; okadaic acid 100 nM or GÖ 6983 250 nM, 2 h; FIG. 4d.
The next assay concerns vimentin in 12 day MDM. The assay can be described thus: In vivo phosphorylation of vimentin, [32P] orthophosphate incorporation in 12 day MDM. Conditions: GÖ 6983 250 nM or OA 100 nM during [32P] labeling, Western blot of same membrane, FIG. 4e. The protocol: 12 day MDM (1.5×10^6) were rinsed three times with phosphate-free RPMI medium (Gibco-BRL, Grand Island, N.Y.). Cells were incubated in 5 ml of phosphate-free RPMI media and allowed to equilibrate at 37 ° C. in a 6 well plate for 2 h. The media was replaced with 1 ml/well of phosphate-free RPMI media with 10% dialysed human serum and 0.166 mCi of [^32P] orthophosphoric acid (Amersham Pharmacia Biotech) for 6 h of incubation. In addition to the control, some wells were treated with GÖ 6983 [250 nM] or OA [100 nM]. Following treatment, medium was removed and replaced by serum free medium for 18 h. Supernatant and cells were prepared for immunoprecipitation as described above (Metabolic Labeling section). Phosphorylated vimentin protein was immunoprecipitated as above, and the samples were separated by 10% SDS-PAGE electrophoresis under reducing conditions. Proteins were transferred to nitrocellulose and subjected to autoradiography for 4 h then immunoblotted with mouse monoclonal anti-vimentin antibody (Research Genetics, Inc.), stripped and re-probed with goat polyclonal anti-vimentin antibody (Chemicon International, Calif.), followed by horseradish peroxidase-conjugated goat anti-mouse or rabbit anti-goat secondary antibodies. Chemiluminescent signal was detected using the Super Signal West Pico system (Pierce Chemical Co, Rockford, Ill.).

In the case of tunicamycin, the “secretion of vimentin from the mature MDM” value in assay [1] is recorded as “eliminate secretion of vimentin”.

Regarding `CC[C@@]1([C@@H]2O[C@@H]([C@H]3O[C@@](O)(CO)[C@H](C)C[C@@H]3C)C[C@@H]2C)CC[C@H]([C@]2(C)CC[C@]3(C[C@H](O)[C@@H](C)[C@@H]([C@@H](C)[C@@H](OC)[C@H](C)C(=O)O)O3)O2)O1` [Monensin, monensin], the “secretion of vimentin from the mature MDM” value in assay [1] is “eliminate secretion of vimentin”.

Turning to TNF-α, the “induction of secretion of vimentin” value in assay [2] (1 day human monocytes in 10% human serum, TNF-α 0.5, 1 or 5 ng ml−1, 12 h, densitometry, FIGS. 5b, 5c) is listed as “up to 120 fold”.

`CC(C)C[C@H](NC(=O)[C@H]1O[C@@H]1C(=O)O)C(=O)NCCCCN=C(N)N` [E-64]: the “vimentin proteolytic products, intracellularly and in the supernatant” value in assay [3] is recorded as “marked decrease”.

As to `C=C1[C@@H](O)[C@@H]2O[C@]3(CC[C@H](/C=C/[C@@H](C)[C@@H]4CC(C)=C[C@@]5(O[C@H](C[C@@](C)(O)C(=O)O)CC[C@H]5O)O4)O3)CC[C@H]2O[C@@H]1[C@@H](O)C[C@H](C)[C@H]1O[C@@]2(CCCCO2)CC[C@H]1C` [OA, okadaic acid], the “amount of phosphorylated vimentin in cells (cytoplasm) and supernatant” value in assay [4] is listed as “increase in phosphorylated vimentin in the supernatants but not in the cells”. Moreover, the “increase in vimentin secretion” value in assay [2] (7 day MDM in 10% serum, okadaic acid 100 nM, 2 h, FIG. 4b) is listed as > 10 fold. Also, in the assay on vimentin in 12 day MDM, the “secretion of vimentin (62 kD and 52 kD forms)” value was “preferentially enhances secretion of the 52 kD form”. In assay [1] (10 day MDM in 40% serum, okadaic acid 100 nM, 2 h, FIG. 4a), the extracellular vimentin levels result was “led to an increase in extracellular vimentin levels”.

Turning to `C[S+]([O-])c1ccc(-c2nc(-c3ccncc3)c(-c3ccc(F)cc3)[nH]2)cc1` (stereo not shown) [SB203580], in assay [1], the “vimentin secretion (vimentin in the supernatant)” value is given as “did not block secretion”.

Turning to `COc1ccc2c(c1)c(C1=C(c3c[nH]c4ccccc34)C(=O)NC1=O)cn2CCCN(C)C` [GÖ6983], the “amount of phosphorylated vimentin in cells (cytoplasm) and supernatant” value in assay [4] is reported as “markedly decreased the amount of phosphorylated vimentin in the cytoplasm as well as in the supernatant”. In assay [2] (7 day MDM in 10% serum, preincubated with GÖ 6983 250 nM 2 h prior to OA 100 nM, FIG. 4b), the OA-enhanced vimentin secretion result is given as “partially decreased”. The “secretion of vimentin (62 kD and 52 kD forms)” value in the assay with vimentin in 12 day MDM is given as “eliminated essentially all the secretion of vimentin”. Moreover, the “secretion of vimentin in the presence of TNF-α” value in assay [1] (40% serum treated MDM, GÖ6983 followed by TNF-α) is reported as “not blocked”. Besides, the “vimentin secretion (vimentin in the supernatant)” value in assay [1] is reported as “almost completely blocked; also recorded: significantly blocked”. The “amount of actin detected in the supernatants” value in assay [1] (eleven day MDM with or without GÖ6983, FIG. 3c) is listed as “does not modify the amount of actin”.

B1: IL-10: anti-inflammatory cytokine, a potent inhibitor of activated macrophages (protein, UniProt P22301 19-178, looked up)
Interleukin-10: SPGQGTQSENSCTHFPGNLPNMLRDLRDAFSRVKTFFQMKDQLDNLLLKESLLEDFKGYLGCQALSEMIQFYLEEVMPQAENQDPDIKAHVNSLGENLKTLRLRLRRCHRFLPCENKSKAVEQVKNAFNKLQEKGIYKAMSEFDIFINYIEAYMTMKIRN
With B1, the secretion of vimentin entry in assay [1] (MDM in 40% human serum, IL-10 10, 50 or 500 ng ml−1, 12 h, FIG. 5a) is “markedly decreased the secretion of vimentin”.
